Results from PubChem BioAssay (NCI).
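48-hour exposure; five concentrations; linearly interpolated endpoints. TGI denotes the concentration required for complete inhibition of growth.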

Experiments:
Test in all cases: NCI-60 cell line screen, 48 h
OVCAR-5 ovarian = test system: OVCAR-5 ovarian
A498 renal = test system: A498 renal
KM12 colon = test system: KM12 colon
MDA-MB-231 breast = test system: MDA-MB-231 breast
HCC-2998 colon = test system: HCC-2998 colon
SK-OV-3 ovarian = test system: SK-OV-3 ovarian
SF-539 CNS = test system: SF-539 CNS
A549 NSCLC = test system: A549 NSCLC
UACC-257 melanoma = test system: UACC-257 melanoma
DU-145 prostate = test system: DU-145 prostate
COLO 205 colon = test system: COLO 205 colon
RPMI-8226 leukemia = test system: RPMI-8226 leukemia
NCI/ADR-RES ovarian = test system: NCI/ADR-RES ovarian
SK-MEL-5 melanoma = test system: SK-MEL-5 melanoma
SW-620 colon = test system: SW-620 colon
BT-549 breast = test system: BT-549 breast
SF-268 CNS = test system: SF-268 CNS
UACC-62 melanoma = test system: UACC-62 melanoma
SF-295 CNS = test system: SF-295 CNS
MDA-N = test system: MDA-N
HCT-116 colon = test system: HCT-116 colon
NCI-H23 lung = test system: NCI-H23 lung
ACHN renal = test system: ACHN renal
SN12C renal = test system: SN12C renal
T-47D breast = test system: T-47D breast
U251 CNS = test system: U251 CNS
HT29 colon = test system: HT29 colon
OVCAR-8 ovarian = test system: OVCAR-8 ovarian
LOX IMVI melanoma = test system: LOX IMVI melanoma
CCRF-CEM leukemia = test system: CCRF-CEM leukemia
SR leukemia = test system: SR leukemia
MCF7 breast = test system: MCF7 breast
M14 melanoma = test system: M14 melanoma
SNB-19 CNS = test system: SNB-19 CNS
EKVX NSCLC = test system: EKVX NSCLC
UO-31 renal = test system: UO-31 renal
PC-3 prostate = test system: PC-3 prostate
OVCAR-3 ovarian = test system: OVCAR-3 ovarian
TK-10 renal = test system: TK-10 renal
CAKI-1 renal = test system: CAKI-1 renal
MOLT-4 leukemia = test system: MOLT-4 leukemia
OVCAR-4 ovarian = test system: OVCAR-4 ovarian
786-0 renal = test system: 786-0 renal
HCT-15 colon = test system: HCT-15 colon
NCI-H226 lung = test system: NCI-H226 lung
NCI-H460 lung = test system: NCI-H460 lung
MDA-MB-435 = test system: MDA-MB-435
HOP-62 NSCLC = test system: HOP-62 NSCLC
SK-MEL-2 melanoma = test system: SK-MEL-2 melanoma
SK-MEL-28 melanoma = test system: SK-MEL-28 melanoma
SNB-75 CNS = test system: SNB-75 CNS
HL-60(TB) leukemia = test system: HL-60(TB) leukemia
IGROV1 ovarian = test system: IGROV1 ovarian
K-562 leukemia = test system: K-562 leukemia
NCI-H522 lung = test system: NCI-H522 lung
HOP-92 NSCLC = test system: HOP-92 NSCLC

CCNC(=S)NNC(=O)c1csc(NC(=S)NC2CCCCC2)n1
TGI (OVCAR-5 ovarian): > 100 µM | TGI (A498 renal): 40 µM | TGI (KM12 colon): 28 µM | TGI (MDA-MB-231 breast): 24.9 µM | TGI (HCC-2998 colon): 23.8 µM | TGI (SK-OV-3 ovarian): 62.3 µM | TGI (SF-539 CNS): 22.8 µM | TGI (A549 NSCLC): 67.8 µM | TGI (UACC-257 melanoma): 27.3 µM | TGI (DU-145 prostate): 45.8 µM | TGI (COLO 205 colon): 21.9 µM | TGI (RPMI-8226 leukemia): 71.6 µM | TGI (NCI/ADR-RES ovarian): 42.4 µM | TGI (SK-MEL-5 melanoma): 15.5 µM | TGI (SW-620 colon): 19.2 µM | TGI (BT-549 breast): 36.6 µM | TGI (SF-268 CNS): 31.4 µM | TGI (UACC-62 melanoma): 27.7 µM | TGI (SF-295 CNS): 40.7 µM | TGI (MDA-N): 15.8 µM | TGI (HCT-116 colon): 18.8 µM | TGI (NCI-H23 lung): > 100 µM | TGI (ACHN renal): 89.8 µM | TGI (SN12C renal): 17.3 µM | TGI (T-47D breast): 53.7 µM | TGI (U251 CNS): 23.7 µM | TGI (HT29 colon): > 100 µM | TGI (OVCAR-8 ovarian): 28.1 µM | TGI (LOX IMVI melanoma): 21.4 µM | TGI (CCRF-CEM leukemia): > 100 µM | TGI (SR leukemia): > 100 µM | TGI (MCF7 breast): > 100 µM | TGI (M14 melanoma): 27.1 µM | TGI (SNB-19 CNS): > 100 µM | TGI (EKVX NSCLC): > 100 µM | TGI (UO-31 renal): 23.1 µM | TGI (PC-3 prostate): 64.5 µM | TGI (OVCAR-3 ovarian): 16.2 µM | TGI (TK-10 renal): > 100 µM | TGI (CAKI-1 renal): 31.1 µM | TGI (MOLT-4 leukemia): 63.5 µM | TGI (OVCAR-4 ovarian): 56.9 µM | TGI (786-0 renal): 25.6 µM | TGI (HCT-15 colon): 37.2 µM | TGI (NCI-H226 lung): > 100 µM | TGI (NCI-H460 lung): 35.2 µM | TGI (MDA-MB-435): 21.1 µM | TGI (HOP-62 NSCLC): 32.4 µM | TGI (SK-MEL-2 melanoma): 29.3 µM

SCCCSCCSCCCSCCS
TGI (OVCAR-5 ovarian): > 100 µM | TGI (KM12 colon): > 100 µM | TGI (MDA-MB-231 breast): > 100 µM | TGI (SK-MEL-28 melanoma): > 100 µM | TGI (HCC-2998 colon): > 100 µM | TGI (SK-OV-3 ovarian): > 100 µM | TGI (SF-539 CNS): > 100 µM | TGI (A549 NSCLC): > 100 µM | TGI (UACC-257 melanoma): > 100 µM | TGI (DU-145 prostate): > 100 µM | TGI (COLO 205 colon): > 100 µM | TGI (NCI/ADR-RES ovarian): > 100 µM | TGI (SK-MEL-5 melanoma): > 100 µM | TGI (SW-620 colon): > 100 µM | TGI (BT-549 breast): > 100 µM | TGI (SF-268 CNS): > 100 µM | TGI (UACC-62 melanoma): > 100 µM | TGI (SF-295 CNS): > 100 µM | TGI (MDA-N): > 100 µM | TGI (SNB-75 CNS): > 100 µM | TGI (HCT-116 colon): > 100 µM | TGI (NCI-H23 lung): > 100 µM | TGI (SN12C renal): > 100 µM | TGI (T-47D breast): > 100 µM | TGI (U251 CNS): > 100 µM | TGI (HT29 colon): > 100 µM | TGI (OVCAR-8 ovarian): > 100 µM | TGI (LOX IMVI melanoma): > 100 µM | TGI (CCRF-CEM leukemia): > 100 µM | TGI (SR leukemia): > 100 µM | TGI (MCF7 breast): > 100 µM | TGI (M14 melanoma): > 100 µM | TGI (SNB-19 CNS): > 100 µM | TGI (EKVX NSCLC): > 100 µM | TGI (HL-60(TB) leukemia): > 100 µM | TGI (UO-31 renal): > 100 µM | TGI (PC-3 prostate): > 100 µM | TGI (OVCAR-3 ovarian): > 100 µM | TGI (IGROV1 ovarian): > 100 µM | TGI (MOLT-4 leukemia): > 100 µM | TGI (OVCAR-4 ovarian): > 100 µM | TGI (786-0 renal): > 100 µM | TGI (K-562 leukemia): > 100 µM | TGI (HCT-15 colon): > 100 µM | TGI (NCI-H460 lung): > 100 µM | TGI (NCI-H522 lung): > 100 µM | TGI (MDA-MB-435): > 100 µM | TGI (HOP-62 NSCLC): > 100 µM

COC(=O)c1ccc(NC(=O)c2cc3c(cc2Br)OCO3)o1
TGI (OVCAR-5 ovarian): > 100 µM | TGI (A498 renal): > 100 µM | TGI (KM12 colon): > 100 µM | TGI (MDA-MB-231 breast): > 100 µM | TGI (SK-MEL-28 melanoma): > 100 µM | TGI (HCC-2998 colon): > 100 µM | TGI (SK-OV-3 ovarian): > 100 µM | TGI (SF-539 CNS): > 100 µM | TGI (A549 NSCLC): > 100 µM | TGI (UACC-257 melanoma): > 100 µM | TGI (DU-145 prostate): > 100 µM | TGI (COLO 205 colon): > 100 µM | TGI (RPMI-8226 leukemia): > 100 µM | TGI (NCI/ADR-RES ovarian): > 100 µM | TGI (SK-MEL-5 melanoma): > 100 µM | TGI (SW-620 colon): > 100 µM | TGI (BT-549 breast): > 100 µM | TGI (SF-268 CNS): 69.8 µM | TGI (UACC-62 melanoma): > 100 µM | TGI (SF-295 CNS): > 100 µM | TGI (MDA-N): > 100 µM | TGI (HOP-92 NSCLC): > 100 µM | TGI (HCT-116 colon): > 100 µM | TGI (NCI-H23 lung): > 100 µM | TGI (ACHN renal): > 100 µM | TGI (SN12C renal): > 100 µM | TGI (T-47D breast): > 100 µM | TGI (U251 CNS): > 100 µM | TGI (HT29 colon): > 100 µM | TGI (OVCAR-8 ovarian): > 100 µM | TGI (LOX IMVI melanoma): > 100 µM | TGI (CCRF-CEM leukemia): > 100 µM | TGI (SR leukemia): > 100 µM | TGI (MCF7 breast): > 100 µM | TGI (M14 melanoma): > 100 µM | TGI (SNB-19 CNS): > 100 µM | TGI (EKVX NSCLC): > 100 µM | TGI (HL-60(TB) leukemia): > 100 µM | TGI (UO-31 renal): > 100 µM | TGI (PC-3 prostate): > 100 µM | TGI (OVCAR-3 ovarian): > 100 µM | TGI (TK-10 renal): > 100 µM | TGI (IGROV1 ovarian): > 100 µM | TGI (CAKI-1 renal): > 100 µM | TGI (MOLT-4 leukemia): > 100 µM | TGI (OVCAR-4 ovarian): > 100 µM | TGI (786-0 renal): > 100 µM | TGI (K-562 leukemia): > 100 µM | TGI (HCT-15 colon): > 100 µM | TGI (NCI-H226 lung): > 100 µM | TGI (NCI-H522 lung): > 100 µM | TGI (MDA-MB-435): > 100 µM | TGI (HOP-62 NSCLC): > 100 µM | TGI (SK-MEL-2 melanoma): > 100 µM
